“Also recorded” adds a separate entry of the source. Where a name gives a salt, the structure may show the parent alone. Read-outs that look alike come from different tables or passages of the source.
Columns and labels:
[1] = system: Epidermophyton floccosum; conditions: 42 strains tested; cited from earlier work
[2] = system: Trichophyton mentagrophytes; conditions: cited from earlier work
[3] = system: Trichophyton terestre; conditions: 1 strain tested; cited from earlier work
[4] = system: Trichophyton rubrum; conditions: 72 strains tested; cited from earlier work
[5] = system: onychomycosis; conditions: oral, following 3-6 months of dosing; cited from earlier work
[6] = system: Microsporum canis; conditions: 49 strains tested; cited from earlier work
[7] = system: onychomycosis; conditions: topical terbinafine; hydrochloride; cited from earlier work
[8] = system: Trichophyton species; conditions: 27 strains tested; cited from earlier work
[9] = Nanoparticle analysis on Nanosight LM10; format: physicochemical
Protocol: Nanoparticle formation was routinely confirmed on a Nanosight LM10 instrument (Malvern Instruments). Additional nanoparticle analyses were carried out using a Zetasizer (Malvern Instruments). […] Initial analysis used a Nanosight LM10 nanosizer (Malvern Instruments) to detect nanoparticles in solution. […] The LM10 uses direct visualisation of the particles through a microscope where particles are tracked by a video camera and their sizes calculated using the Einstein-Stokes equation, which relates particle velocity in a solution to their diameter. This video capture also allows for a qualitative assessment of different formulations during their analysis. However, this instrument has a lower cut-off range of approximately 20 nm diameter for analysis.

[10] = system: Trichophyton interdigitale; conditions: 11 strains tested; cited from earlier work
[11] = system: Microsporum species; conditions: 25 strains tested; cited from earlier work
[12] = oral dosing, cited from earlier work
[13] = format: in vitro ADME; conditions: human, 7 days
Protocol: Nail clippings were soaked in water overnight at 30° C. and dried briefly. A 3 mm diameter punch was used to take disc biopsies of the nail clippings. Each nail disc was added to a Franz cell and an upper chamber of the cell attached. 40 μl of the following formulations was added to the upper chambers: 0.3 mg/ml PHMB+0.1 mg/ml terbinafine; or 10 mg/ml terbinafine. Lower collection chambers of the Franz cells were filled with water (approximately 600 μl) and the hole in the base of the sample chamber also filled with ddH2O to prevent bubbles forming beneath the nail. The upper sample chamber was carefully placed into the collection chamber ensuring not to introduce any air bubbles. Excess liquid from the collection chamber was expelled at this point leaving a final volume of liquid in the lower chamber of 500 μl. […]
The nail discs from the Franz cell were also analysed for the presence of terbinafine as follows: the remaining test sample was removed from the upper sample chamber and discarded and the sample chamber washed 5 times with 100 μl ddH2O, with each wash being discarded, in order to remove any residual test solution remaining in the sample chamber. […]
The cells were then incubated at 32° C. for 7 days. […] After 7 days, samples from the underside of the nail (ethanol washes) were collected and analysed by LC-MS/MS. […] Levels of terbinafine were quantified against drug standards. […]

[14] = system: T. mentagrophytes; experiment: Trychophyton mentagrophytes anti-fungal paper disc lawn assay; format: cell-based
Protocol: A single colony of T. mentagrophytes was picked from a stock plate and grown for 48 hours in 5 mls of YEPD (yeast extract, peptone, dextrose) medium at 30° C. A sterile swab was dipped into the resulting culture and then used to spread a lawn of T. mentagrophytes onto a YEPD agar plate supplemented with chloramphenicol (50 ug/ml). […] A 10 mm sterile paper disc was soaked in test solution, the excess liquid removed and the disc placed onto the T. mentagrophytes lawn. Plates were inverted and incubated at 30° C. for 5 days. The first experiment performed was to establish the approximate MIC (minimum inhibitor concentration) for terbinafine against T. mentagrophytes in a paper disc assay. […] After 5 days of incubation, zones of clearance were observed around the discs with concentrations of terbinafine having anti-fungal activity against this species (as shown in FIG. 10). […] The reported figures were certainly derived from a liquid MIC assay, which is known to be more sensitive, and so this paper disc assay represented a substantially more stringent test of drug efficacy. This assay was also used to address the question of whether terbinafine passing through the nail in BB0305 treated samples still retained its antifungal efficacy.

[15] = system: Trichophyton verrucosum; conditions: 17 strains tested; cited from earlier work

number of particles/ml of solution ([9]; 0.1 mg/ml terbinafine in 30% (v/v) ethanol): < 5e+07 mL⁻¹ | particle size range (diameter) ([9]; 0.1 mg/ml terbinafine, 30% ethanol): 50-800 nm | particle number ([9]; 30% ethanol, room temperature at least 24 hours, 0.1 mg/ml terbinafine): 0.5×10^8 particles/ml | median concentration of drug in dissolved nails [13]: approximately 0.5 mg/g | terbinafine passing through the nail (ethanol washes of underside) ([13]; 0.1 mg/ml): < 0.1 ng/mL | paper disc MIC relative to previously reported MIC ([14]; 0.6 μg/ml versus 6 ng/ml): > 100 × | MIC ([14]; Trichophyton mentagrophytes, 120 h, paper disc assay, 5 days incubation, approximate, read-out: MIC (minimum inhibitor concentration)): 600 ng/mL
SMILES: CN(C/C=C/C#CC(C)(C)C)Cc1cccc2ccccc12 [terbinafine, terbinafine hydrochloride]
MIC range [1]: 1 to 47 ng/mL | MIC range ([2]; 32 strains tested): 1 to 6 ng/mL | previously reported MIC ([2]; liquid MIC assay, with reference to Table 1): 6 ng/mL | MIC range [3]: 2 ng/mL | MIC range [4]: 1 to 38 ng/mL | cure [5]: > 80% | MIC range [6]: 6 to 80 ng/mL | efficacy in the treatment of onychomycosis [7]: failed to show efficacy; also recorded: failed to demonstrate any significant efficacy | MIC range [8]: ≤60 ng/mL | MIC range [10]: 2 to 28 ng/mL | MIC range [11]: 2 to 70 ng/mL | terbinafine concentration in nails ([12]; after 3 weeks): about 0.25 μg/g | terbinafine concentration in nails ([12]; after 18 months): 0.55 µg/g | terbinafine concentration in nails ([12]; after 7 days treatment): 0.1 µg/g | antifungal activity (zone of clearance) of sample that passed through nail ([14]; aqueous phase of Franz cell collection chamber after 7 days treatment of healthy human nail, 30° C., 5 days): no effect | MIC range [15]: 1 to 6 ng/mL

From patent US12678414B2, “Compositions for treatment of fungal nail infections” (Blueberry Therapeutics Limited, priority 2016, dated 2026)
